{"source": "patent US20250121024A1", "about": "“COMBINED USE OF IMIQUIMOD AND A CASEIN HYDROLYSATE FOR THE TREATMENT OF CONDYLOMA” (NTD LABS, S.L.U., priority 2021, published 2025)", "test_system": "condyloma", "assay": "Controlled, observational clinical trials of topical 5% imiquimod, oral casein hydrolysate and their combination in patients suffering from condyloma", "assay_type": "in vivo, human", "conditions": "for Total resolution rate of condyloma (%): percentage of patients with total resolution", "experimental": "The efficacy of the combination of imiquimod and a casein hydrolysate, according to the characteristics defined in the present invention, for the treatment of patients with condyloma was evaluated. Specifically, it was evaluated whether oral supplementation with the casein hydrolysate in patients treated with topical 5% imiquimod produced an improvement in treatment efficacy (rate of complete resolution of condyloma) and/or reduced recurrences (rate of recurrences) after the treatment.\nA controlled, observational clinical trial was carried out, which included 44 female patients suffering from condyloma, who were divided into two groups: • Imiquimod group (I) (24 patients): treated with 5% imiquimod cream (3 times per week for up to 16 weeks). • Imiquimod+casein hydrolysate group (I+C) (20 patients): treated with 5% imiquimod cream (3 times per week for up to 16 weeks) plus oral casein hydrolysate (6 g once per day, for 6 months).\nLikewise, a controlled, observational clinical trial was carried out with 20 patients suffering from condyloma (Group casein hydrolysate (C)) who were treated only with oral casein hydrolysate for 6 months (6 grams, once per day).\nA commercially available casein hydrolysate (HuPaVir®) and a commercially available 5% imiquimod cream (Aldara® 5% cream) were used in the study.\nIn particular, the evaluation of patients at 4, 8, 12 and 16 weeks after starting treatment is included, as well as after 6 months (for group C some points are not available), wherein the percentage of patients with total resolution of condyloma during treatment (up to 16 weeks) and the recurrence rate 6 months after starting the treatment is reported.", "data": [{"smiles": "CC(C)Cn1cnc2c(N)nc3ccccc3c21", "note": "[I, 1-(2-methylpropyl)-1H-imidazo[4,5-c]quinoline-4-amine]", "values": [{"measurement": "Total resolution rate of condyloma (%)", "setting": "4 weeks after starting treatment", "result": 8.33, "unit": "%"}, {"measurement": "Recurrence rate (%)", "setting": "6 months after starting the treatment", "result": 14.3, "unit": "%"}, {"measurement": "Total resolution rate of condyloma (%)", "setting": "8 weeks after starting treatment", "result": 28.57, "unit": "%"}, {"measurement": "Total resolution rate of condyloma (%)", "setting": "12 weeks after starting treatment", "result": 58.33, "unit": "%"}, {"measurement": "Total resolution rate of condyloma (%)", "setting": "12 weeks after starting treatment, listed as imiquimod", "result": 58, "unit": "%"}, {"measurement": "Total resolution rate of condyloma (%)", "setting": "16 weeks after starting treatment", "result": 72.72, "unit": "%"}]}]}
